# Experimental data reported in patent US10570184B2, “GLP-1/glucagon receptor co-agonists for medical use” (Novo Nordisk A/S, priority 2014, dated 2020).
# Starred links: 1 amine or outer side, 2 acyl side, 3 side chain; linkers in the order of their positions; H or OH if unused. Non-standard residues stand in square brackets, D forms with d. Residues, ends and D or L forms follow the SMILES beside them. Groups on a side chain read outwards from the residue. *: point of attachment. C18 diacid = O=C(O)CCCCCCCCCCCCCCCCC(=O)*; γGlu = O=C(O)[C@H](CCC(=O)[*:2])N[*:1]; AEEA = NCCOCCOCC(=O)O; Aib = CC(C)(N)C(=O)O
# Tests used:
# human GLP-1 receptor = target: T1, human GLP-1 receptor (Homo sapiens, UniProt P43220); assay: Assay (II)(a) GLP-1 receptor binding, 125I-GLP-1 displacement SPA on BHK membranes; settings: without presence of serum albumin; read-out: GLP-1R IC50 (nM) [Assay (II)(a)]
# T1 construct: expressed in transfected cells; host or cells: membranes of BHK cells (parent BHKTS13), clone FCW467-12A
# T1 sequence (P43220 24-463): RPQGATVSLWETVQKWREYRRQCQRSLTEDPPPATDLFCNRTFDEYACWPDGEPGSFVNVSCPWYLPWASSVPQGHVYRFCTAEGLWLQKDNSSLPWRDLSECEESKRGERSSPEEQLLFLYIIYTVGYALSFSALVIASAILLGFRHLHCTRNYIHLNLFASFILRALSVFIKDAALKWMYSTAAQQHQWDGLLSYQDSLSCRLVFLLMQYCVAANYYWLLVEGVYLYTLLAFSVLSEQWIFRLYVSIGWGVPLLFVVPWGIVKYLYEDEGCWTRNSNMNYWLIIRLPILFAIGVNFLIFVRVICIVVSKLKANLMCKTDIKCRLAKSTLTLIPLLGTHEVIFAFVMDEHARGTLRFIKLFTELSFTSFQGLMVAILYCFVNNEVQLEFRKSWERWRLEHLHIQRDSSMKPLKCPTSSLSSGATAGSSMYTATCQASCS
# In short: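 Membranes from BHK cells (clone FCW467-12A) stably expressing human GLP-1R were incubated with serially diluted compounds (8×10EE-13 to 8×10EE-7 M before addition) and [125I]-GLP-1-(7-36)NH2 with WGA SPA beads, 2 h at 30° C, pH 7.4. IC50 taken from displacement by non-linear regression. Run at ≤0.001% or 2.0% final serum albumin.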
# [1] = Assay (III) ThT fibrillation assay for physical stability; format: physicochemical; settings: 250 μM in 10 mM HEPES buffer, 37° C., shaking 960 rpm
# Text: The purpose of this assay is to assess the physical stability of the glucagon derivatives of the invention in aqueous solutions. Low physical stability of a peptide may lead to amyloid fibril formation, which is observed as well-ordered, thread-like macromolecular structures in the sample, which eventually may lead to gel formation. This has traditionally been measured by visual inspection of the sample. However, that kind of measurement is very subjective and depending on the observer. Therefore, the application of a small molecule indicator probe is much more advantageous. Thioflavin T (ThT) is such a probe and has a distinct fluorescence signature when binding to fibrils [Naiki et al. (1989) Anal. Biochem. 177, 244-249; LeVine (1999) Methods. Enzymol. 309, 274-284]. […] The constant t0 is the time needed to reach 50% of maximum fluorescence. The two important parameters describing fibril formation are the lag-time calculated by t0−2τ and the apparent rate constant kapp 1/τ. Samples were prepared freshly before each assay. Each sample composition is described in the legends. The pH of the sample was adjusted to the desired value using appropriate amounts of concentrated NaOH and HCl. Thioflavin T was added to the samples from a stock solution in H2O to a final concentration of 1 μM. Sample aliquots of 200 μl (250 μM of the glucagon derivative in 10 mM HEPES buffer, pH 7.5) were placed in a 96 well microtiter plate (Packard OptiPlate™-96, white polystyrene). Usually, four or eight replica of each sample (corresponding to one test condition) were placed in one column of wells. The plate was sealed with Scotch Pad (Qiagen). Incubation at given temperature, shaking and measurement of the ThT fluorescence emission were done in a Fluoroskan Ascent FL fluorescence platereader (Thermo Labsystems). The temperature was adjusted to 37° C. The plate was incubated with orbital shaking adjusted to 960 rpm with an amplitude of 1 mm. Fluorescence measurement was done using excitation through a 444 nm filter and measurement of emission through a 485 nm filter. Each run was initiated by incubating the plate at the assay temperature for 10 min. The plate was measured every 20 minutes for a desired period of time. Between each measurement, the plate was shaken and heated as described. After completion of the ThT assay the four or eight replica of each sample was pooled and centrifuged at 20000 rpm for 30 minutes at 18° C. The supernatant was filtered through a 0.22 μm filter and an aliquot was transferred to a HPLC vial. The concentration of peptide in the initial sample and in the filtered supernatant was determined by reverse phase HPLC using an appropriate standard as reference. The percentage fraction the concentration of the filtered sample constituted of the initial sample concentration was reported as the recovery. The measurement points were saved in Microsoft Excel format for further processing and curve drawing and fitting was performed using GraphPad Prism. The background emission from ThT in the absence of fibrils was negligible. The data points are typically a mean of four or eight samples and shown with standard deviation error bars. Only data obtained in the same experiment (i.e. samples on the same plate) are presented in the same graph ensuring a relative measure of fibrillation between experiments. The data set may be fitted to Eq. (1).
SMILES,IC50 (human GLP-1 receptor) [nM],"ThT Assay Lag time (h) [Assay (III), pH 7.5] [1] [h]"
"CC[C@H](C)[C@H](NC(=O)[C@H](CC(C)C)NC(=O)[C@H](Cc1c[nH]c2ccccc12)NC(=O)[C@H](CCC(N)=O)NC(=O)[C@@H](NC(=O)[C@H](Cc1ccccc1)NC(=O)[C@H](CCC(=O)O)NC(=O)[C@H](CCCNC(=N)N)NC(=O)[C@H](C)NC(=O)[C@H](CCCNC(=N)N)NC(=O)[C@H](CCCNC(=N)N)NC(=O)[C@H](CC(C)C)NC(=O)[C@H](CC(=O)O)NC(=O)[C@H](CC(C)C)NC(=O)[C@H](Cc1ccc(O)cc1)NC(=O)[C@H](CCCCN)NC(=O)[C@H](CO)NC(=O)[C@H](CC(C)C)NC(=O)[C@H](CC(=O)O)NC(=O)[C@H](CO)NC(=O)[C@@H](NC(=O)[C@H](Cc1ccccc1)NC(=O)[C@@H](NC(=O)CNC(=O)[C@H](CCC(N)=O)NC(=O)C(C)(C)NC(=O)[C@@H](N)Cc1c[nH]cn1)[C@@H](C)O)[C@@H](C)O)C(C)C)C(=O)N[C@@H](CC(N)=O)C(=O)N[C@@H](CCCCNC(=O)CC[C@H](NC(=O)CC[C@H](NC(=O)COCCOCCNC(=O)COCCOCCNC(=O)CC[C@H](NC(=O)CCCCCCCCCCCCCCCCC(=O)O)C(=O)O)C(=O)O)C(=O)O)C(N)=O [Chem. 22, N^ε29-[(4S)-4-carboxy-4-[[(4S)-4-carboxy-4-[[2-[2-[2-[[2-[2-[2-[[(4S)-4-carboxy-4-(17-carboxyheptadecanoylamino)butanoyl]amino]ethoxy]ethoxy]acetyl]amino]ethoxy]ethoxy]acetyl]amino]butanoyl]amino]butanoyl]-[Aib2,Leu10,Leu16,Arg20,Glu21,Ile27,Lys29]-Glucagon amide] (H-H[Aib]QGTFTSDLSKYLDLRRAREFVQWLINK([γGlu-γGlu-AEEA-AEEA-γGlu-C18 diacid])-NH2; N-terminus assumed)",0.3,45.0
"CC[C@H](C)[C@H](NC(=O)[C@H](CC(C)C)NC(=O)[C@H](Cc1c[nH]c2ccccc12)NC(=O)[C@H](CCC(N)=O)NC(=O)[C@@H](NC(=O)[C@H](Cc1ccccc1)NC(=O)[C@H](CC(=O)O)NC(=O)[C@H](CCCNC(=N)N)NC(=O)[C@H](C)NC(=O)[C@H](CCCNC(=N)N)NC(=O)[C@H](CCCNC(=N)N)NC(=O)[C@H](CC(C)C)NC(=O)[C@H](CC(=O)O)NC(=O)[C@H](CC(C)C)NC(=O)[C@H](Cc1ccc(O)cc1)NC(=O)[C@H](CCCCN)NC(=O)[C@H](CO)NC(=O)[C@H](CC(C)C)NC(=O)[C@H](CC(=O)O)NC(=O)[C@H](CO)NC(=O)[C@@H](NC(=O)[C@H](Cc1ccccc1)NC(=O)[C@@H](NC(=O)CNC(=O)[C@H](CCC(N)=O)NC(=O)C(C)(C)NC(=O)[C@@H](N)Cc1c[nH]cn1)[C@@H](C)O)[C@@H](C)O)C(C)C)C(=O)N[C@@H](CC(N)=O)C(=O)N[C@@H](CCCCNC(=O)CC[C@H](NC(=O)CC[C@H](NC(=O)COCCOCCNC(=O)COCCOCCNC(=O)CC[C@H](NC(=O)CCCCCCCCCCCCCCCCC(=O)O)C(=O)O)C(=O)O)C(=O)O)C(N)=O [Chem. 23, N^ε29-[(4S)-4-carboxy-4-[[(4S)-4-carboxy-4-[[2-[2-[2-[[2-[2-[2-[[(4S)-4-carboxy-4-(17-carboxyheptadecanoylamino)butanoyl]amino]ethoxy]ethoxy]acetyl]amino]ethoxy]ethoxy]acetyl]amino]butanoyl]amino]butanoyl]-[Aib2,Leu10,Leu16,Arg20,Ile27,Lys29]-Glucagon amide] (H-H[Aib]QGTFTSDLSKYLDLRRARDFVQWLINK([γGlu-γGlu-AEEA-AEEA-γGlu-C18 diacid])-NH2; N-terminus assumed)",0.3,45.0
"CC[C@H](C)[C@H](NC(=O)[C@H](CC(C)C)NC(=O)[C@H](Cc1c[nH]c2ccccc12)NC(=O)[C@H](CCC(N)=O)NC(=O)[C@@H](NC(=O)[C@H](Cc1ccccc1)NC(=O)[C@H](CCC(=O)O)NC(=O)[C@H](CCCNC(=N)N)NC(=O)[C@H](C)NC(=O)[C@H](CCCNC(=N)N)NC(=O)[C@H](CCCNC(=N)N)NC(=O)[C@H](CC(C)C)NC(=O)[C@H](CC(=O)O)NC(=O)[C@H](CC(C)C)NC(=O)[C@H](Cc1ccc(O)cc1)NC(=O)[C@H](CCCCN)NC(=O)[C@H](CO)NC(=O)[C@H](CC(C)C)NC(=O)[C@H](CC(=O)O)NC(=O)[C@H](CO)NC(=O)[C@@H](NC(=O)[C@H](Cc1ccccc1)NC(=O)[C@@H](NC(=O)CNC(=O)[C@H](CCC(N)=O)NC(=O)C(C)(C)NC(=O)[C@@H](N)Cc1c[nH]cn1)[C@@H](C)O)[C@@H](C)O)C(C)C)C(=O)N[C@@H](CO)C(=O)N[C@@H](CCCCNC(=O)CC[C@H](NC(=O)CC[C@H](NC(=O)COCCOCCNC(=O)COCCOCCNC(=O)CC[C@H](NC(=O)CCCCCCCCCCCCCCCCC(=O)O)C(=O)O)C(=O)O)C(=O)O)C(N)=O [Chem. 30, N^ε29-[(4S)-4-carboxy-4-[[(4S)-4-carboxy-4-[[2-[2-[2-[[2-[2-[2-[[(4S)-4-carboxy-4-(17-carboxyheptadecanoylamino)butanoyl]amino]ethoxy]ethoxy]acetyl]amino]ethoxy]ethoxy]acetyl]amino]butanoyl]amino]butanoyl]-[Aib2,Leu10,Leu16,Arg20,Glu21,Ile27,Ser28,Lys29]-Glucagon amide] (H-H[Aib]QGTFTSDLSKYLDLRRAREFVQWLISK([γGlu-γGlu-AEEA-AEEA-γGlu-C18 diacid])-NH2; N-terminus assumed)",0.9,45.0
"CC[C@H](C)[C@H](NC(=O)[C@H](CC(C)C)NC(=O)[C@H](Cc1c[nH]c2ccccc12)NC(=O)[C@H](C)NC(=O)[C@@H](NC(=O)[C@H](Cc1ccccc1)NC(=O)[C@H](CC(=O)O)NC(=O)[C@H](CCC(N)=O)NC(=O)[C@H](C)NC(=O)[C@H](CCCNC(=N)N)NC(=O)[C@H](CCCNC(=N)N)NC(=O)[C@H](CO)NC(=O)[C@H](CCC(=O)O)NC(=O)[C@H](CC(C)C)NC(=O)[C@H](Cc1ccc(O)cc1)NC(=O)[C@H](CCCCN)NC(=O)[C@H](CO)NC(=O)[C@H](Cc1ccc(O)cc1)NC(=O)[C@H](CC(=O)O)NC(=O)[C@H](CO)NC(=O)[C@@H](NC(=O)[C@H](Cc1ccccc1)NC(=O)[C@@H](NC(=O)CNC(=O)[C@H](CCC(N)=O)NC(=O)C(C)(C)NC(=O)[C@@H](N)Cc1c[nH]cn1)[C@@H](C)O)[C@@H](C)O)C(C)C)C(=O)N[C@@H](CO)C(=O)N[C@@H](CCCCNC(=O)CC[C@H](NC(=O)CC[C@H](NC(=O)COCCOCCNC(=O)COCCOCCNC(=O)CC[C@H](NC(=O)CCCCCCCCCCCCCCCCC(=O)O)C(=O)O)C(=O)O)C(=O)O)C(N)=O [Chem. 35, N^ε29-[(4S)-4-carboxy-4-[[(4S)-4-carboxy-4-[[2-[2-[2-[[2-[2-[2-[[(4S)-4-carboxy-4-(17-carboxyheptadecanoylamino)butanoyl]amino]ethoxy]ethoxy]acetyl]amino]ethoxy]ethoxy]acetyl]amino]butanoyl]amino]butanoyl]-[Aib2,Glu15,Ala24,Ile27,Ser28,Lys29]-Glucagon amide] (H-H[Aib]QGTFTSDYSKYLESRRAQDFVAWLISK([γGlu-γGlu-AEEA-AEEA-γGlu-C18 diacid])-NH2)",2.2,45.0
